Results as given in patent US8697081B2, “Method of modulating neovascularization” (The Regents of the University of Michigan, priority 2008, dated 2014).

Tests used:
human endothelial cells = assay: F-actin cytoskeletal organization, activated β1 integrin and vinculin distribution (phalloidin, confocal); format: cell-based; conditions: 3-D fibrin gel, 2 days, 50 μM blebbistatin
Method: To further study the effects of Fn matrix inhibition, additional cytological processes associated with angiogenesis were examined. Endothelial cells were cultured within 3-D or 2-D fibrin gels in the presence of the FUD or Del 29 peptides for 2 days. F-actin cytoskeletal organization was monitored following staining with Alexa 488-conjugated phalloidin. Cells also were stained with an antibody against activated β1 integrin or transfected with a GFP-tagged vinculin expression vector (pRK-vinculin-EGFP) to study distribution. Following counterstaining with Alexa 594-labeled phalloidin, fluorescence was monitored by confocal laser microscopy.
In the absence of Fn fibrillogenesis, an impaired ability of embedded endothelial cells to generate myosin-dependent forces and increase cytoplasmic stiffness was predicted to affect both Fn unfolding, as well as the ability of the cells to properly register the mechanical properties of the surrounding substratum (Wu et al. 1995. Cell, 83(5): 715-724; Zhong et al. 1998. J. Cell Biol., 141(2): 539-551; Baneyx et al. 2002. Proc. Natl. Acad. Sci. USA, 99(8): 5139-5143; Discher et al. 2005. Science, 310(5751): 1139-1143; Engler, supra; and Yoneda, supra). As such, the rheologic and functional characteristics of endothelial cells were assessed in the presence of the specific myosin ATPase inhibitor, blebbistatin. […]

[1] = test system: Human umbilical vein endothelial cells; assay: Chromatin organization (GFP-H2B, H3K9me3) and histone H3/H4 acetylation; format: cell-based; conditions: 3-D culture, VEGF/HGF-stimulated, blebbistatin or nocodazole
From the text: At sites of tissue damage, inflammation or neoplasia, fibrinogen is converted into a 3-D meshwork of fibrin fibrils that serve as a structural support for endothelial cells undergoing neovascularization (Chun et al. 2006. Cell, 125: 577-591; Hiraoka et al. 1998. Cell, 95: 365-377; Schafer and Werner. 2008. Nat. Rev. Mol. Cell Biol., 9: 628-638; Zhou et al. 2008. Genes Dev., 22: 1231-1243). This process can be recapitulated in vitro by embedding serum-supplemented human endothelial cells within a 3-D fibrin gel in the presence of the pro-angiogenic factors, VEGF and HGF. Human umbilical vein endothelial cells were isolated from umbilical cords by perfusion of the umbilical vein with type 3 collagenase (Worthington, Lakewood, N.J.) and cultured in Medium-199 (Invitrogen, Carlsbad, Calif.) with 20% human serum and 50 μg/ml endothelial cell growth supplement (ECGS; BD Biosciences, Franklin Lakes, N.J.). For 3-D culture, endothelial cells were suspended in a solution of thrombin and aprotinin (Sigma, St. Louis, Mo.) and mixed 1:1 with a solution of 6 mg/ml fibrinogen (Calbiochem, Gibbstown, N.J.). Vasculogenesis was triggered by treatment with 100 ng/ml VEGF, 50 ng/ml HGF (Genentech, San Francisco, Calif.). Fibronectin fibrillogenesis was tracked in 3-D by co-culture with human fibronectin (Sigma) labeled with Alexa-594 (Invitrogen).
Yet, multi-lobed nuclei and anomalous nuclear pore complex distributions can be observed in laminopathies, a pleiotropic series of genetic disorders wherein mutations in lamin or emerin impact chromatin organization, histone modifications, and transcriptional activity (Csoka et al., 2004. Aging Cell, 3: 235-243; Dechat et al., 2008. Genes Dev, 22: 832-853; Dillon, 2008. Dev Cell, 15: 182-186; Malhas et al., 2007. J. Cell Biol., 176: 593-603; Mendjan et al., 2006. Mol. Cell, 21: 811-823; Shumaker et al., 2006. Proc. Natl. Acad. Sci. USA, 103: 8703-8708; Tang et al., 2008. J. Cell Sci., 121: 1014-1024). To determine whether VEGF/HGF-dependent changes in nuclear shape similarly affect chromatin structure/function, chromatin packaging was tracked at the single-endothelial cell level by monitoring GFP-tagged histone H2B or pericentromeric constitutive heterochromatin localization. […] heterochromatin localization was visualized by immunostaining for trimethylated lysine 9 of histone H3 (H3K9me3) (Shumaker, supra; Tang, supra).
Histone acetylation can be regulated by chromatin positioning within the nucleus (Finlan et al., 2008. PLoS Genet, 4: e1000039; Somech et al., 2005. J. Cell Sci., 118: 4017-4025). Thus, the acetylation status of histones H3 and H4 was assessed as functional markers of changes in chromatin organization. […]

[2] = test system: chorioallantoic membrane (CAM) of live chicks; assay: Chick chorioallantoic membrane (CAM) angiogenesis into 3-D matrices; format: in vivo; conditions: 3 days, VEGF and HGF, versus Del29 control
Method: The functional role for fibrillogenesis in tissue sites undergoing active angiogenesis in vivo was assessed. To this end, 3-D composite gels of fibrin and type I collagen were placed atop the chorioallantoic membrane (CAM) of live chicks, and angiogenesis was initiated in the presence of FUD or the Del29 peptide control. In particular, 3-D matrices of type I collagen or a type I collagen/fibrin composite matrix were cast in transwell tissue culture inserts (24 well size) perforated with a 25 gauge needle. A 30 μl Matrigel (BD Biosciences) reservoir was placed atop the matrix containing 200 ng VEGF, 100 ng HGF, and either Del29 or FUD. The entire apparatus was placed atop the dropped CAM of 10-11 day old fertile chicken eggs. Following incubation in a humidified incubator at 37° for 3 days, the matrices were harvested. Vascular ingrowth was monitored by light microscopy following H&E staining. In some experiments, FITC-Fn (McKeown-Longo and Mosher. 1985. J. Cell. Biol., 100(2): 364-74) was supplemented in the matrices during the culture period, and Fn fibrillogenesis within the gels was monitored by confocal laser microscopy.

Cc1ccc2c(c1)C(=O)C1(O)CCN(c3ccccc3)C1=N2 (centres unmarked) [blebbistatin]
cytoskeletal architecture reorganization (human endothelial cells): did not reorganize | chromatin distribution [1]: chromatin condensations at the nuclear periphery with increased interchromatin space | levels of acetylated histones H3 and H4 [1]: decreased levels

FUD: 49-residue functional upstream domain of Streptococcus pyogenes F1 adhesion protein, SEQ ID NO: 10; fibronectin fibril assembly inhibitor (KDQSPLAGESGETEYITEVYGNQQNPVDIDKKLPNETGFSGNMVETEDT; Streptococcus pyogenes; Functional Upstream Domain (FUD) of F1 adhesion protein)
Fn matrix assembly in ECM construct [2]: almost completely inhibited | neovessel formation (vascular ingrowth) [2]: ablated
